# Values quoted from earlier work, collected in paper PMC2096654 (Purinergic Signalling, 2006).
# Target: T1, human A3 adenosine receptor (Homo sapiens, UniProt P0DMS8)
# T1 sequence (P0DMS8 1-318): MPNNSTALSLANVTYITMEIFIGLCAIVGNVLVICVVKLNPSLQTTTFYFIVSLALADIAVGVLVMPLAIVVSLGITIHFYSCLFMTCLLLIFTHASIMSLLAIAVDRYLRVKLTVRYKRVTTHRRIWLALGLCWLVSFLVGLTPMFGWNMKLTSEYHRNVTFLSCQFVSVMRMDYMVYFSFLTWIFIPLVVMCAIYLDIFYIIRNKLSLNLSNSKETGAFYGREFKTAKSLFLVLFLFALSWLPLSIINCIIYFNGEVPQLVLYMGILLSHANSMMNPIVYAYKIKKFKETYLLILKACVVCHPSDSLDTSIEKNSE
# Conditions: reference agonist
structure (smiles),measurement,value
"CNC(=O)[C@H]1O[C@@H](n2cnc3c(NCc4cccc(I)c4)nc(Cl)nc32)[C@H](O)[C@@H]1O [Cl-IB-MECA, 2-chloro-N^6-(3-iodobenzyl)-5′methylcarboxamidoadenosine]",agonist behaviour at A3 receptor,full agonist
